The target in one test is T1, human A3 receptors (Homo sapiens, UniProt P0DMS8).
T1 construct: expressed in transfected cells; host or cells: HEK-293 cells, stably transfected; membrane preparation
T1 sequence (P0DMS8 1-318): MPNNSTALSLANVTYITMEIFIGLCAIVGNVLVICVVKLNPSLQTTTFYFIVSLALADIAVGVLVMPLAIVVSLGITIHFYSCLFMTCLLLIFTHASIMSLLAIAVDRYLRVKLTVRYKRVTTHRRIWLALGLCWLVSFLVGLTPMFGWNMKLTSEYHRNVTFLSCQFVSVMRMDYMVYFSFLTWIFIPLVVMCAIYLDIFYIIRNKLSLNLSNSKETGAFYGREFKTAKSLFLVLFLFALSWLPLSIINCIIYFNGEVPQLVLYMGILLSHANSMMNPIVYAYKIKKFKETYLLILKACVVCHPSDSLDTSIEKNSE
The experiment in a line: Adenosine receptor binding assay ([3H]HEMADO competition). The conditions noted are these: Cheng-Prusoff, read-out: hA3 Ki. The text has this:
Materials and Reference Compounds: [^3H] HEMADO (obtained from (ARC, Cat: ART1456) and [3H] DPCPX (obtained from PerkinElmer Cat no. NET974250UC)). IB-MECA was obtained from Tocris (Bristol, UK) and N6-cyclopentyl adenosine (CPA) is obtained from Sigma-Alrich (Poole, UK). Cell culture media, G418 and hygromycin are obtained from Invitrogen (Paisley, UK). Fetal calf serum is obtained from Perbio Science (Cheshire, UK). All other reagents are obtained from Fisher Chemicals (Loughborough, UK).
The method followed is that of Yates L, Clark J H, Martin T J, James S, Broadley K J, Kidd E J. Radioligand binding and functional responses of ligands for human recombinant adenosine A3 receptors. Auton Autacoid Pharmacol. 2006; 26 (2): 191-200. Cells stably transfected with the human adenosine A3 or A1 receptor are grown in Dulbecco's modified Eagles medium with nutrient mixture F12 containing NaHCO3 and Glutamax. Media is supplemented with 10% fetal calf serum, geneticin (G418; 0.67 mg/mL), hygromycin (500 μg/mL) and adenosine deaminase (1 U/mL). Cells are maintained at 37° C. with 5% CO2 in air. Cells are harvested and homogenized in ice-cold Tris buffer [50 mM Tris, 150 mM NaCl, 1 mM ethylenediaminetetraacetic acid (EDTA), pH 7.4] supplemented with the peptidase inhibitors, 4-(2-aminoethyl)benzene sulfonylfluoride (1 mM) and bacitracin (0.1 mg/mL), using a Polytron homogenizer (3×10 s bursts). The homogenate is spun for 10 min (4° C.) at 500 g. The supernatant is retained and the pellet is re-suspended in the buffer, homogenized and spun as above. The combined supernatants are centrifuged for 15 min (4° C.) at 48,000 g. The resultant pellet is re-suspended in the buffer and centrifuged for a second time at 48,000 g. The membrane pellet is then suspended in Tris buffer containing no peptidase inhibitors or adenosine deaminase and stored at −80° C. at a protein concentration of 1 mg/mL.
Binding Assays: Radioligand-binding assays are performed using the adenosine A3 receptor agonist [^3H] HEMADO and the A1 receptor […] [^3H] DPCPX. Binding assays are conducted in a total volume of 100 μL containing a 50 mM Tris, pH 7.4 buffer with or without 10 mM MgCl2, 20 μg membranes and either 4.154 nM [3H] HEMADO (for the A3 receptor) or 1.6065 nM [^3H] DPCPX (for the A1 receptor). Assays are conducted at room temperature for 60 min (A1 receptor) or 120 min (A3 receptor) and terminated by the addition of 2 ml of ice-coldish buffer (50 mM Tris, pH 7.4 with or without 10 mM MgCl2) and rapid filtration over 0.03% polyethylenimine-treated Whatman GF/C filters using a Brandel cell harvester (Semat International Ltd., St Albans, UK). Filters are then ished three times with 2 ml of ice-cold buffer. The filter-bound radioactivity are counted using a Compugamma counter (LKB Wallac, Turku, Finland). Competition experiments are performed to investigate the ability of reference compounds and embodiments of the invention to inhibit [^3H] HEMADO binding. Non-specific binding are determined using the respective compound at its highest concentration.
Data Analysis: The Kd and Bmax values for binding data are calculated based upon the molar amounts of bound and free [^3H] HEMADO. […] IC50 and Ki values and Hill slopes for inhibition of the radioligand binding by the compounds of the invention are calculated from the ligand competition curves using the Excel spreadsheet and the Kd value calculated for either [^3H] HEMADO or [^3H] DPCPX. The results are expressed as a percent of control specific binding and as a percent inhibition of control specific binding obtained in the presence of the compounds of the invention. The IC50 values (concentration causing a half-maximal inhibition of control specific binding) and Hill coefficients (nH) are determined by non-linear regression analysis of the competition curves generated with mean replicate values using Hill equation curve fitting: […]

For test [1], the target named is T2, human adenosine A3 receptor (Homo sapiens, UniProt P0DMS8).
T2 construct: expressed in transfected cells; host or cells: CHO-K1 cells, stably transfected
T2 sequence (P0DMS8 1-318): T1 sequence (P0DMS8 1-318)
Briefly: Intracellular cAMP levels (inhibition of forskolin-stimulated cAMP production). The test is classed as cell-based. The conditions noted are these: for EC50: CHO-K1 cells expressing human adenosine A3 receptor, forskolin 10 μM; for cAMP Efficacy (%): maximal response as percentage of the response produced by 100 nM IB-MECA. From the text: The method followed is that published in Yates L, Clark J H, Martin T J, James S, Broadley K J, Kidd E J. Radioligand binding and functional responses of ligands for human recombinant adenosine A3 receptors. Auton Autacoid Pharmacol. 2006 April; 26 (2): 191-200.
Materials and Cell Culture: Adenosine deaminase is obtained from Roche (Lewes, UK). Forskolin is obtained from Sigma-Aldrich (Poole, UK). The sources of other materials are provided above in Example 1. CHO-K1 cells stably transfected with the human adenosine A3 receptor are grown in Dulbecco's modified Eagles medium with nutrient mixture F12 containing NaHCO3 and Glutamax. Media is supplemented with 10% fetal calf serum, geneticin (G418; 0.67 mg/mL), hygromycin (500 μg/mL) and adenosine deaminase (1 U/mL). Cells are maintained at 37° C. with 5% CO2 in air.
CAMP Measurements: Intracellular cAMP production is measured directly using a non-acetylation cAMP enzyme immunoassay (Amersham Biosciences, Little Chalfont, UK). Cultured CHO cells expressing human adenosine A3 receptors are allowed to plate overnight in 96-well plates in culture medium containing adenosine deaminase. Twenty-four hours later, they are incubated with adenosine analogues or compounds of the invention (0.1 nM-1 μM) for 5 min at 37° C., followed by incubation with forskolin (10 μM) for 10 min. The cells are then lysed with 200 μL of lysis reagent 1 provided with the kit for 10 min to release intracellular CAMP. Aliquots of the supernatants are then transferred to a 96-well microtitre plate coated with donkey anti-rabbit IgG; 100-μL cAMP standards (12.5-3200 fmol/well) are also added to the microtitre plate; 100 μL of rabbit anti-cAMP antibody is added to all wells and incubated at 2-5° C. for 2 h. The antiserum is made up in lysis reagent 2, which sequesters the key component in lysis reagent 1 and ensures that CAMP is free for subsequent analysis. Then 50 μL of cAMP peroxidase conjugate is added to all wells and left to incubate for 60 min at 2-5° C. to allow competition for the antibody between the un-labelled and horse radish peroxidase (HRP)-labelled cAMP. Wells are then ished with buffer and 150 μL of enzyme substrate containing 3,3′,5,5′-tetramethylbenzidine/hydrogen peroxide in 20% (v/v) dimethylformamide is added to each well and left to incubate for 60 min on a Titramax 100 microtitre plate shaker (Heidolph Instruments, Schwabach, Germany) at room temperature for color development. The reaction is stopped by the addition of 100 μL of 1 M sulfuric acid and the optical density (OD) read at 450 nm on a spectrophotometric MRX microplate reader (Dynex Technologies, Chantilly, VA, USA).
Analyses: Each sample/standard was analyzed in duplicate and the resulting OD values averaged. The percent bound (B/B0) for each standard and sample was calculated using the following relationship:
[formula] • where B is the specific OD for standard/sample and B0 is the specific OD for the zero standard. A standard curve was generated by plotting % B/B0 as a function of the log fmol cAMP standard per well. The fmol per well value for cAMP in each sample was then read from the graph. The results are expressed as a percent of control agonist response: (measured response/control response)*100 in the presence of the compounds of the invention. Concentration-response curves for inhibition of cAMP production were constructed for all compounds of the invention and reference compounds. The EC50 values (concentration producing a half-maximal response) were determined by non-linear regression analysis of the concentration-response curves generated with mean replicate values using Hill equation curve fitting, according to the equation:
[formula] • where Y=response, A=left asymptote of the curve, D=right asymptote of the curve, C=compound concentration, and C50=EC50, and nH=slope factor. […]

Setting [2] is: Table 2, # = average between two data points.
Setting [3] is: Table 1, membranes of HEK-293 cells expressing human A3 receptor.

We go through 13 molecules from patent publication US20260008805A1, “ADENOSINE ANALOGS FOR THE TREATMENT OF DISEASE” (BIOINTERVENE, INC., priority 2022, published 2026).

By Ki is commonly meant a measure of affinity in units of concentration, obtained from inhibition or displacement. By EC50 is commonly meant the concentration giving half of the maximal effect. Read a high EC50 as weaker potency.

Read-outs that look alike come from different tables or passages of the source.

Consider `Cc1cc2c(Cl)nc3c(ncn3[C@H]3[C@H](O)[C@H](O)[C@]4(C#N)C[C@H]34)c2[nH]1` [26A*], for which the Ki on human A3 receptors (Table 2, membranes of HEK-293 cells expressing human A3 receptor) came out at 98 nM. Moreover, in test [1] (setting [2]), the EC50 amounted to 100 nM and the “cAMP Efficacy (%)” value stood at 5%.
Consider `Cn1nnc([C@@]23C[C@@H]2[C@@H](n2cnc4c5[nH]c(C(F)F)cc5c(Cl)nc42)[C@H](O)[C@@H]3O)n1` [Compound 1B], for which the Ki on human A3 receptors (setting [3]) is 1.09 nM. Moreover, in test [1] (Table 1), a half-maximal response (EC50) required 1 nM and the “cAMP Efficacy (%)” value turned out to be 5%.
The like results for `Cc1cc2c(Cl)nc3c(ncn3[C@H]3[C@H](O)[C@H](O)[C@]4(c5ncn(C)n5)C[C@H]34)c2[nH]1` [Compound 2B] were, in that order, 1.24 nM, 0.17 nM and 104%.
For `Cc1nc2c(Cl)nc3c(ncn3[C@H]3[C@H](O)[C@H](O)[C@]4(c5nnn(C)n5)C[C@H]34)c2[nH]1` [Compound 3B], in that order: 1.27 nM, 1 nM and 31.72%.
On to `Cn1nnc([C@@]23C[C@@H]2[C@@H](n2cnc4c5[nH]c(C=O)cc5c(Cl)nc42)[C@H](O)[C@@H]3O)n1` [Compound 4B], for which the Ki on human A3 receptors (setting [3]) amounted to 2.72 nM. Also, in test [1] (Table 1), it took 100 nM to reach a half-maximal effect (EC50) and the “cAMP Efficacy (%)” value is 10%.
Consider `Cn1nnc([C@@]23C[C@@H]2[C@@H](n2cnc4c5[nH]c(CO)cc5c(Cl)nc42)[C@H](O)[C@@H]3O)n1` [Compound 5B], for which, at human A3 receptors (setting [3]), the Ki was 2.83 nM. Also, in test [1] (Table 1), a half-maximal response (EC50) required 3 nM and the “cAMP Efficacy (%)” value is on record as 34.29%.
For `Cc1cc2c(Cl)nc3c(ncn3[C@H]3[C@H](O)[C@H](O)[C@]4(c5ncc[nH]5)C[C@H]34)c2[nH]1` [Compound 6B], in that order: 6.36 nM, 0.14 nM and 105.39%.
For `N#Cc1cc(NCc2cc(Cl)ccc2Cl)c2ncn([C@H]3[C@H](O)[C@H](O)[C@]4(c5ncc[nH]5)C[C@H]34)c2n1` [Compound 8B], in that order: 12.1 nM, 1.87 nM and 104.81%.
The like results for `O[C@H]1[C@H](n2cnc3c(NCc4cc(Cl)ccc4Cl)cc(Cl)nc32)[C@H]2C[C@@]2(c2ncc[nH]2)[C@H]1O` [Compound 9B] were, in that order, 38.6 nM, 4.61 nM and 103.89%.
In the case of `CCNc1cc(Cl)nc2c1ncn2[C@H]1[C@H](O)[C@H](O)[C@]2(c3ncco3)C[C@H]12` [Compound 10B], the Ki on human A3 receptors (setting [3]) turned out to be 41 nM. Moreover, in test [1] (Table 1), it took 16.1 nM to reach a half-maximal effect (EC50) and the “cAMP Efficacy (%)” value was determined as 70.12%.
The like results for `CCNc1cc(Cl)nc2c1ncn2[C@H]1[C@H](O)[C@H](O)[C@]2(c3ncc[nH]3)C[C@H]12` [Compound 12B] were, in that order, 31.2 nM, 5.5 nM and 107.37%.
Regarding `CCNc1cc(Cl)nc2c1ncn2[C@H]1[C@H](O)[C@H](O)[C@]2(c3nnn(C)n3)C[C@H]12` [Compound 13B], the Ki at human A3 receptors (setting [3]) amounted to 2.1 nM. For the same molecule, the “cAMP Efficacy (%)” value in test [1] (Table 1) is 2%.
As to `O[C@H]1[C@H](n2cnc3c(NCC(F)F)cc(Cl)nc32)[C@H]2C[C@@]2(c2ncn[nH]2)[C@H]1O` [Compound 14B], on human A3 receptors (setting [3]), the Ki came out at 21.7 nM. In addition, in test [1] (Table 1), the EC50 came to 27.2 nM and the “cAMP Efficacy (%)” value came out at 89.97%.
